Experiments:
[1] = biological target: T1, Growth hormone secretagogue receptor type 1 (Homo sapiens, UniProt Q92847); assay: Displacement of [35S]MK677 from human ghrelin receptor expressed in african green monkey COS7 cells; type: cell-based, COS-7
[2] = biological target: T1, Growth hormone secretagogue receptor type 1; assay: Inverse agonist activity at human ghrelin receptor expressed in african green monkey COS7 cells assessed as constitutively stimulated inositol phosphate accumulation; type: functional, cell-based, COS-7

T1 sequence (Q92847 whole entry): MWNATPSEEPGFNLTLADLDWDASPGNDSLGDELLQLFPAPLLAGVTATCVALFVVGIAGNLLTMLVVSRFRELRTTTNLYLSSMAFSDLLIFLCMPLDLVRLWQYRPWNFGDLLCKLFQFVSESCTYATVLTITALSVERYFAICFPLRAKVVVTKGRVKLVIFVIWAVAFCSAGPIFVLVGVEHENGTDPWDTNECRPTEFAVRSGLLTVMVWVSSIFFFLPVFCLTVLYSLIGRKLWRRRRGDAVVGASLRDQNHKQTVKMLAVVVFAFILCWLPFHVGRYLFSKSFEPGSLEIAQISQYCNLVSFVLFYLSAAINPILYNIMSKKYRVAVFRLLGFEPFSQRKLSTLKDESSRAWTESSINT

CC(C)C[C@H](NC(=O)[C@H](CC(C)C)NC(=O)[C@@H](Cc1c[nH]c2ccccc12)NC(=O)[C@H](Cc1ccccc1)NC(=O)[C@H](N)Cc1c[nH]c2ccccc12)C(N)=O
IC50 [1]: 530 nM
IC50 [2]: > 1000 nM

C[C@H](NC(=O)[C@H](C)NC(=O)[C@@H](Cc1c[nH]c2ccccc12)NC(=O)[C@H](Cc1ccccc1)NC(=O)[C@H](N)Cc1c[nH]c2ccccc12)C(N)=O
IC50 [1]: > 1000 nM
IC50 [2]: > 1000 nM

CC(C)C[C@H](NC(=O)[C@H](CC(C)C)NC(=O)[C@@H](Cc1c[nH]c2ccccc12)NC(=O)[C@H](Cc1ccccc1)NC(=O)[C@@H](Cc1c[nH]c2ccccc12)NC(=O)[C@@H](CCCNC(=N)N)NC(=O)[C@H]1CCCN1C(=O)[C@@H](N)CC(=O)O)C(N)=O
IC50 [1]: 210 nM
IC50 [2]: 112 nM

CC(C)C[C@H](NC(=O)[C@H](CC(C)C)NC(=O)[C@@H](Cc1c[nH]c2ccccc12)NC(=O)[C@H](Cc1ccccc1)NC(=O)[C@@H](Cc1c[nH]c2ccccc12)NC(=O)[C@@H](N)Cc1cnc[nH]1)C(N)=O
IC50 [1]: 58 nM
IC50 [2]: 68 nM

NC(=O)CNC(=O)CNC(=O)[C@@H](Cc1c[nH]c2ccccc12)NC(=O)[C@H](Cc1ccccc1)NC(=O)[C@H](N)Cc1c[nH]c2ccccc12
IC50 [1]: 540 nM
IC50 [2]: 159 nM
